Measurements from ChEMBL document CHEMBL1201862, “PubChem BioAssay data set” (2004).
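Each compound was tested at five concentrations against cells in 96-well plates for 48 hours. GI50 is the concentration that inhibits growth by half.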 Active and inactive are the calls of the source. Rule as the data show it: active = GI50 up to about 1.1 µM and inactive = higher. Residues, ends and D or L forms follow the SMILES beside them. *: point of attachment. Pentanoyl = CCCCC(=O)*; Boc = CC(C)(C)OC(=O)*

Key:
Assay in all cases: NCI tumour cell line growth inhibition, 48 h
MDA-N = test system: MDA-N
CCRF-CEM = test system: CCRF-CEM
SN12C = test system: SN12C
A549 = test system: A549
SNB-75 = test system: SNB-75
HCT-15 = test system: HCT-15
SK-OV-3 = test system: SK-OV-3
PC-3 = test system: PC-3
U-251 = test system: U-251
M14 = test system: M14
UACC-62 = test system: UACC-62
RPMI-8226 = test system: RPMI-8226
EKVX = test system: EKVX
TK-10 = test system: TK-10
SW-620 = test system: SW-620
HL-60 = test system: HL-60
T47D = test system: T47D
A498 = test system: A498
MCF7 = test system: MCF7
SF-295 = test system: SF-295
RXF 393 = test system: RXF 393
OVCAR-8 = test system: OVCAR-8
COLO 205 = test system: COLO 205
IGROV-1 = test system: IGROV-1
OVCAR-4 = test system: OVCAR-4
HOP-92 = test system: HOP-92
SF-268 = test system: SF-268
NCI-H522 = test system: NCI-H522
NCI-H23 = test system: NCI-H23
Malme-3M = test system: Malme-3M
SK-MEL-5 = test system: SK-MEL-5
ACHN = test system: ACHN
CAKI-1 = test system: CAKI-1
DU-145 = test system: DU-145
BT-549 = test system: BT-549
Hs-578T = test system: Hs-578T
HCC 2998 = test system: HCC 2998
UO-31 = test system: UO-31
SNB-19 = test system: SNB-19
MOLT-4 = test system: MOLT-4
OVCAR-5 = test system: OVCAR-5
HCT-116 = test system: HCT-116
KM12 = test system: KM12
NCI/ADR-RES = test system: NCI/ADR-RES
HT-29 = test system: HT-29
NCI-H460 = test system: NCI-H460
SK-MEL-28 = test system: SK-MEL-28
MDA-MB-231 = test system: MDA-MB-231
MDA-MB-435 = test system: MDA-MB-435
UACC-257 = test system: UACC-257
HOP-62 = test system: HOP-62
786-0 = test system: 786-0
NCI-H226 = test system: NCI-H226
SK-MEL-2 = test system: SK-MEL-2
OVCAR-3 = test system: OVCAR-3
SF-539 = test system: SF-539
SR = test system: SR
LOX IMVI = test system: LOX IMVI
K562 = test system: K562

Measured: GI50

CN(C)c1ccc(/C=C2\N=C(N/N=C/c3ccccc3)NC2=O)cc1
inactive: MDA-N 33.4 µM | CCRF-CEM 35.2 µM | SN12C > 100 µM | A549 36.7 µM | SNB-75 81.1 µM | SK-OV-3 > 100 µM | PC-3 75.3 µM | U-251 60.5 µM | M14 89.7 µM | UACC-62 79.8 µM | RPMI-8226 28.8 µM | EKVX > 100 µM | TK-10 > 100 µM | SW-620 67.9 µM | HL-60 > 100 µM | T47D 56.4 µM | A498 > 100 µM | MCF7 56.1 µM | SF-295 69.5 µM | RXF 393 20.2 µM | OVCAR-8 26.3 µM | COLO 205 47.1 µM | IGROV-1 44.9 µM | OVCAR-4 60.1 µM | HOP-92 26.4 µM | SF-268 66.5 µM | NCI-H522 32.2 µM | NCI-H23 50.6 µM | Malme-3M 69.5 µM | SK-MEL-5 41.1 µM | ACHN > 100 µM | CAKI-1 > 100 µM | DU-145 58.7 µM | BT-549 > 100 µM | Hs-578T 43 µM | HCC 2998 42.1 µM | UO-31 > 100 µM | SNB-19 > 100 µM | MOLT-4 26.8 µM | OVCAR-5 > 100 µM | HCT-116 83.6 µM | KM12 52.6 µM | NCI/ADR-RES 29.1 µM | HT-29 40.6 µM | NCI-H460 49.9 µM | SK-MEL-28 > 100 µM | MDA-MB-231 > 100 µM | MDA-MB-435 33 µM | UACC-257 > 100 µM | HOP-62 > 100 µM | 786-0 44.2 µM | NCI-H226 > 100 µM | SK-MEL-2 > 100 µM | OVCAR-3 > 100 µM
33.4 µM: HCT-15

Cc1cn2cc(-c3cccs3)nc2s1
inactive: MDA-N > 72.6 µM | CCRF-CEM 54.6 µM | SN12C > 100 µM | A549 > 72.1 µM | SNB-75 > 100 µM | SK-OV-3 > 100 µM | PC-3 > 74.3 µM | U-251 > 100 µM | M14 > 78.3 µM | UACC-62 > 100 µM | RPMI-8226 > 100 µM | EKVX > 65.8 µM | TK-10 > 73.3 µM | SW-620 > 100 µM | HL-60 55.8 µM | T47D 25.4 µM | A498 27.2 µM | SF-539 > 100 µM | MCF7 > 53.5 µM | SF-295 > 100 µM | RXF 393 > 100 µM | OVCAR-8 > 100 µM | COLO 205 > 95.5 µM | IGROV-1 > 86.3 µM | OVCAR-4 > 100 µM | HOP-92 > 71.8 µM | SF-268 > 91.8 µM | NCI-H522 > 100 µM | NCI-H23 > 75.5 µM | Malme-3M > 100 µM | SK-MEL-5 > 61.8 µM | ACHN > 88.5 µM | CAKI-1 > 100 µM | DU-145 > 40.4 µM | BT-549 > 100 µM | Hs-578T > 100 µM | HCC 2998 63.4 µM | UO-31 48.8 µM | SNB-19 > 100 µM | SR > 67.6 µM | MOLT-4 58.7 µM | OVCAR-5 > 100 µM | HCT-116 > 100 µM | KM12 43.9 µM | HT-29 > 41.2 µM | NCI-H460 > 100 µM | SK-MEL-28 > 100 µM | LOX IMVI > 45.9 µM | MDA-MB-435 > 100 µM | UACC-257 > 85.9 µM | HOP-62 > 100 µM | 786-0 > 100 µM | NCI-H226 > 24.6 µM | K562 99.3 µM | SK-MEL-2 > 100 µM | OVCAR-3 > 100 µM
> 71.9 µM: HCT-15

COC(=O)C(C)Sc1nc2cc(Cl)ccc2s1 (configuration not stated)
> 100 µM: HCT-15
inactive: MDA-N > 100 µM | CCRF-CEM 78.5 µM | SN12C > 100 µM | A549 > 100 µM | SNB-75 > 100 µM | SK-OV-3 > 100 µM | PC-3 > 100 µM | U-251 > 100 µM | M14 > 100 µM | UACC-62 > 100 µM | RPMI-8226 > 100 µM | EKVX > 100 µM | SW-620 > 100 µM | T47D > 100 µM | A498 > 100 µM | SF-539 > 100 µM | MCF7 > 100 µM | SF-295 > 100 µM | RXF 393 > 100 µM | OVCAR-8 > 100 µM | COLO 205 > 100 µM | IGROV-1 > 100 µM | OVCAR-4 > 100 µM | HOP-92 > 100 µM | SF-268 > 100 µM | NCI-H522 > 100 µM | NCI-H23 > 100 µM | Malme-3M > 100 µM | SK-MEL-5 > 100 µM | ACHN > 100 µM | CAKI-1 > 100 µM | DU-145 > 100 µM | BT-549 > 100 µM | Hs-578T > 100 µM | HCC 2998 > 100 µM | UO-31 > 100 µM | SNB-19 > 100 µM | MOLT-4 > 100 µM | OVCAR-5 > 100 µM | HCT-116 > 100 µM | KM12 > 100 µM | NCI/ADR-RES > 100 µM | HT-29 > 100 µM | NCI-H460 > 100 µM | SK-MEL-28 > 100 µM | MDA-MB-231 > 100 µM | MDA-MB-435 > 100 µM | UACC-257 > 100 µM | HOP-62 > 100 µM | 786-0 > 100 µM | NCI-H226 > 100 µM | K562 78.9 µM | OVCAR-3 > 100 µM

CCOC(=O)C1(C#N)CC1
> 100 µM: HCT-15
inactive: MDA-N > 100 µM | CCRF-CEM > 100 µM | SN12C > 100 µM | A549 > 100 µM | SNB-75 > 100 µM | SK-OV-3 > 100 µM | PC-3 > 100 µM | U-251 > 100 µM | M14 > 100 µM | UACC-62 > 100 µM | EKVX > 100 µM | TK-10 > 100 µM | SW-620 > 100 µM | HL-60 > 100 µM | T47D > 100 µM | SF-539 > 100 µM | MCF7 > 100 µM | SF-295 > 100 µM | RXF 393 7.94 µM | OVCAR-8 > 100 µM | COLO 205 > 100 µM | IGROV-1 > 100 µM | OVCAR-4 > 100 µM | SF-268 > 100 µM | NCI-H522 > 100 µM | NCI-H23 > 100 µM | Malme-3M > 100 µM | SK-MEL-5 > 100 µM | ACHN > 100 µM | CAKI-1 > 100 µM | DU-145 > 100 µM | BT-549 > 100 µM | Hs-578T > 100 µM | HCC 2998 > 100 µM | UO-31 > 100 µM | SNB-19 > 100 µM | SR > 100 µM | MOLT-4 > 100 µM | OVCAR-5 > 100 µM | HCT-116 > 100 µM | KM12 > 100 µM | NCI/ADR-RES > 100 µM | HT-29 > 100 µM | NCI-H460 > 100 µM | SK-MEL-28 > 100 µM | MDA-MB-231 > 100 µM | LOX IMVI > 100 µM | UACC-257 > 100 µM | HOP-62 > 100 µM | 786-0 > 100 µM | NCI-H226 > 100 µM | K562 > 100 µM | SK-MEL-2 > 100 µM

CCCCC(=O)Oc1ccc(CC(NC(=O)OC(C)(C)C)C(=O)NC(C)C(=O)NC(Cc2ccccc2)C(=O)NCC(N)=O)cc1 (configuration not stated) (Boc-Y(Pentanoyl)AFG-NH2; configuration not given here)
> 100 µM: HCT-15
inactive: MDA-N 25.9 µM | CCRF-CEM 40.6 µM | SN12C 32.3 µM | A549 > 100 µM | SNB-75 45.5 µM | SK-OV-3 32.6 µM | PC-3 43.9 µM | U-251 20.5 µM | M14 36.7 µM | UACC-62 20.5 µM | RPMI-8226 21.2 µM | TK-10 > 100 µM | SW-620 44.8 µM | HL-60 26.4 µM | T47D 27.4 µM | A498 > 100 µM | SF-539 33.3 µM | MCF7 20.5 µM | SF-295 63.8 µM | RXF 393 44.5 µM | OVCAR-8 16.8 µM | COLO 205 19.6 µM | IGROV-1 19.7 µM | OVCAR-4 74.1 µM | HOP-92 16.2 µM | SF-268 31.6 µM | NCI-H522 18.8 µM | NCI-H23 41 µM | Malme-3M 31.6 µM | SK-MEL-5 70 µM | ACHN > 100 µM | CAKI-1 > 100 µM | DU-145 > 100 µM | BT-549 23.7 µM | Hs-578T 34.6 µM | HCC 2998 20.6 µM | UO-31 > 100 µM | SNB-19 23.3 µM | MOLT-4 24.3 µM | OVCAR-5 21.9 µM | HCT-116 21.4 µM | KM12 23.7 µM | NCI/ADR-RES > 100 µM | HT-29 19.4 µM | NCI-H460 31.7 µM | SK-MEL-28 27.3 µM | MDA-MB-231 20 µM | LOX IMVI 16.1 µM | MDA-MB-435 20 µM | UACC-257 27.7 µM | HOP-62 17.3 µM | 786-0 43.6 µM | NCI-H226 > 100 µM | K562 46.3 µM | SK-MEL-2 20.7 µM | OVCAR-3 20.4 µM
